The values below come from patent US6326361A, “Gangliosides with immunosuppressive activity” (The Regents of the University of California, priority 1993, dated 2001).

Assay [1] has as its system normal human peripheral blood mononuclear cells (PBMC). Format: cell-based. The conditions noted are these: for IC90: tetanus toxoid, 2-3 separate experiments/ganglioside, read-out: ID90 (ganglioside concentration required to cause 90% inhibition of the lymphoproliferative response).
For assay [2] the test system is unchanged. Kind of assay: Inhibition of normal human lymphoproliferative responses to a panel of mitogens and soluble antigens (3H-thymidine uptake). It is filed as cell-based. The conditions noted are these: 0.5% plasma; for 3H-thymidine uptake: mean of triplicate cultures.
Setting [3] is: Candida Antigen, ganglioside 2.5 μM.
Setting [4] is: Candida Antigen, ganglioside 10 μM.
Where [5] appears, read: Diptheria Toxoid, ganglioside 2.5 μM.
Setting [6] is: Diptheria Toxoid, ganglioside 10 μM.
[7] abbreviates: Tetanus Toxoid, ganglioside 10 μM.

For the substance GT1b, the IC90 in assay [1] was found to be 2.8 µM.

With sialosylceramide [GM5], the “predicted immunosuppressive activity (in words)” value in assay [1] (inferred from Table 2 trend) is listed as “very active as an immunosuppressant”.

As to asialo-GM1 [reference compound], in assay [1], the “immunosuppressive activity (in words)” value is given as “does not substantially alter activity”.

As for GD1b, the IC90 in assay [1] was 4.5 µM.

What is called % inhibition is the relative decrease from the control value, in per cent. Low values mean little suppression, high ones strong suppression. As to GD1a, the “% inhibition” value in assay [2] (setting [3]) is reported as 45%; in assay [2] (setting [4]), 84%; in assay [2] (ConA, ganglioside 2.5 μM), 0%; in assay [2] (ConA, ganglioside 10 μM), 37%; in assay [2] (setting [5]) it was 60%; in assay [2] (setting [6]) it was 85%. The “% inhibition” value in assay [2] (PHA, ganglioside 2.5 μM) is on record as 3%; in assay [2] (PHA, ganglioside 10 μM), 11%; in assay [2] (PWM, ganglioside 2.5 μM), 7%; in assay [2] (PWM, ganglioside 10 μM), 68%; in assay [2] (setting [7]), 88%. For the same substance, the 3H-thymidine uptake in assay [2] (setting [3]) came to 3.2 net cpm; in assay [2] (setting [4]) it was 0.9 net cpm; in assay [2] (ConA, ganglioside 2.5 μM) it was 84.3 net cpm; in assay [2] (ConA, ganglioside 10 μM), 49.0 net cpm; in assay [2] (setting [5]), 2.1 net cpm; in assay [2] (setting [6]), 0.8 net cpm. In addition, the 3H-thymidine uptake is listed as 75.4 net cpm in assay [2] (PHA, ganglioside 2.5 μM); 69.2 net cpm in assay [2] (PHA, ganglioside 10 μM); 13.0 net cpm in assay [2] (PWM, ganglioside 2.5 μM); 4.5 net cpm in assay [2] (PWM, ganglioside 10 μM); 8.8 net cpm in assay [2] (Tetanus Toxoid, ganglioside 2.5 μM); 3.2 net cpm in assay [2] (setting [7]). In addition, the IC90 in assay [1] is 2.3 µM.

In the case of “galactosylceramide [asialo-GM4, reference compound]”, the IC50 in assay [1] (tetanus toxoid-induced lymphoproliferation, read-out: ID50 (the source's name)) was found to be 13 µM.
